Like-named read-outs stand apart in the source and are kept apart here. Starred links: 1 amine or outer side, 2 acyl side, 3 side chain; linkers in the order of their positions; H or OH if unused. Positions of bridges follow the written chain, without caps; N, C: chain ends. Non-standard residues stand in square brackets, D forms with d. Residues, ends and D or L forms follow the SMILES beside them. ξ: configuration not given here. *: point of attachment. Phe(3-NHCO(CH2)3SO2NH2) = N[C@@H](Cc1cccc(NC(=O)CCCS(N)(=O)=O)c1)C(=O)O; X11 = NS(=O)(=O)c1ccc(C(=O)Nc2cccc(C[C@H](N[*:1])C(=O)[*:2])c2)s1; X34 = O=C(CCc1nc[nH]n1)Nc1cccc(C[C@H](N[*:1])C(=O)[*:2])c1; DOTA = O=C(O)CN1CCN(CC(=O)O)CCN(CC(=O)*)CCN(CC(=O)O)CC1; Propanoyl(3-SO2NH2) = NS(=O)(=O)CCC(=O)*; ξTrp(1-Me) = Cn1cc(CC(N)C(=O)O)c2ccccc21; Phe(4-NH2) = Nc1ccc(C[C@H](N)C(=O)O)cc1; mXylylene = c1cc(C[*:1])cc(C[*:2])c1; X14 = O=C([C@H]1CCCN([*:1])C1)[*:2]; X2 = O=C(CN1CCC(N[*:1])CC1)[*:2]; X1 = O=C(CN1CCN([*:1])CC1)[*:2]; X39 = NS(=O)(=O)c1ccc(N*)cc1; Dap = NC[C@H](N)C(=O)O; AEEA = NCCOCCOCC(=O)O; GABA = NCCCC(=O)O
Columns and labels:
[1] = target: T1, CAIX-expressing human HT-29 colorectal cancer cells (Homo sapiens, UniProt Q16790); experiment: FACS binding assay (IC50 determination, competition with tracer 3BP-2776 or 3BP-4149); conditions: 4° C., 1 hour, read-out: pIC50 category (activity) (converted)
T1 construct: CAIX-expressing human HT-29 colorectal cancer cells; host or cells: HT-29 human colorectal cancer cells
Procedure, shortened: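 HT-29 cells in FACS buffer (PBS, 1% FCS) at 500.000 cells/ml were exposed to compounds competing with a labelled tracer, with biotinylated compounds detected by 1 μg/mL APC-streptavidin for 30 min on ice. APC/Cy5 median fluorescence was read by flow cytometry and IC50 derived by 4PL fit.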

[2] = target: T2, human carbonic anhydrase IX (hCAIX-Fc) (Homo sapiens, UniProt Q16790); experiment: Surface plasmon resonance assay with hCAIX-Fc; format: binding; conditions: 25° C.; for t1/2 category (activity): SPR dissociation half-life, hCAIX-Fc; for Kd: SPR, hCAIX-Fc captured, read-out: pKD category (activity) (converted)
T2 construct: purchased SinoBliological (Sino Biological) 10107-H02H

[3] = FACS binding assay, HT-29 cells, competition with tracer 3BP-2776 (10 nM, biotin-labeled)
[4] = FACS binding assay, HT-29 cells, competition with tracer 3BP-4149 (3 nM, Cy5-labeled)

IC50 [1, 3] | t1/2 category (activity) [2] | Kd [2] | IC50 ([1]; FACS competition on HT-29 cells, Tracer ID 3BP-2776 (10 nM, biotin-labeled)) | IC50 [1, 4] | SMILES
< 10 nM | A (t1/2>15.0 minutes) | < 10 nM | – | – | CC(C)C[C@@H]1NC(=O)[C@H](Cc2cccc(NC(=O)CCCS(N)(=O)=O)c2)NC(=O)[C@H](CC(=O)O)NC(=O)[C@H]2CCCN2C(=O)[C@H](CCC(=O)O)NC(=O)[C@@H](NC(=O)[C@H](CCC(N)=O)NC(=O)CN2CCN(CC(=O)O)CCN(CC(=O)O)CCN(CC(=O)O)CC2)CSCc2cccc(c2)CSC[C@@H](C(N)=O)NC(=O)[C@H](CO)NC(=O)[C@H](Cc2c[nH]c3ccccc23)NC(=O)[C@H]([C@@H](C)O)NC1=O [3BP-4453]
< 10 nM | A (t1/2>15.0 minutes) | < 10 nM | – | – | CC(C)C[C@@H]1NC(=O)[C@H](Cc2ccc(NC(=O)CCS(N)(=O)=O)cc2)NC(=O)[C@H](CC(=O)O)NC(=O)[C@H]2CCCN2C(=O)[C@H](CCC(=O)O)NC(=O)[C@@H](NC(=O)[C@H](CCC(N)=O)NC(=O)CN2CCN(C(=O)CN3CCN(CC(=O)O)CCN(CC(=O)O)CCN(CC(=O)O)CC3)CC2)CSCc2cccc(c2)CSC[C@@H](C(N)=O)NC(=O)[C@H](CO)NC(=O)[C@H](Cc2c[nH]c3ccccc23)NC(=O)[C@H]([C@@H](C)O)NC1=O [3BP-4500] ({DOTA}-[X1]QCE[dP]D[Phe(4-NH2)](Propanoyl(3-SO2NH2))LTWSC-NH2; linker 3-12 via mXylylene)
< 10 nM | A (t1/2>15.0 minutes) | < 10 nM | – | – | CC(C)C[C@@H]1NC(=O)[C@H](Cc2cccc(NC(=O)c3cc(S(N)(=O)=O)co3)c2)NC(=O)[C@H](CC(=O)O)NC(=O)[C@H]2CCCN2C(=O)[C@H](CCC(=O)O)NC(=O)[C@@H](NC(=O)[C@H](CCC(N)=O)NC(=O)CN2CCN(C(=O)CN3CCN(CC(=O)O)CCN(CC(=O)O)CCN(CC(=O)O)CC3)CC2)CSCc2cccc(c2)CSC[C@@H](C(N)=O)NC(=O)[C@H](CO)NC(=O)[C@H](Cc2c[nH]c3ccccc23)NC(=O)[C@H]([C@@H](C)O)NC1=O [3BP-4788]
– | A (t1/2>15.0 minutes) | < 10 nM | – | 10 to 79.4 nM | CC(C)C[C@@H]1NC(=O)[C@H](Cc2cccc(NC(=O)CCCS(N)(=O)=O)c2)NC(=O)[C@H](CC(=O)O)NC(=O)[C@H]2CCCN2C(=O)[C@H](CCC(=O)O)NC(=O)[C@@H](NC(=O)[C@H](Cc2ccc(O)cc2)NC(=O)[C@H]2CCCN(C(=O)CN3CCN(CC(=O)O)CCN(CC(=O)O)CCN(CC(=O)O)CC3)C2)CSCc2cccc(c2)CSC[C@@H](C(N)=O)NC(=O)[C@H](CO)NC(=O)[C@H](Cc2c[nH]c3ccccc23)NC(=O)[C@H]([C@@H](C)O)NC1=O [3BP-4454] ({DOTA}-[X14]YCE[dP]D[Phe(3-NHCO(CH2)3SO2NH2)]LTWSC-NH2; linker 3-12 via mXylylene)

More lines, now with the values behind:

SMILES | IC50 [1, 3] | t1/2 category (activity) [2] | Kd [2] | IC50 ([1]; FACS competition on HT-29 cells, Tracer ID 3BP-2776 (10 nM, biotin-labeled)) | IC50 [1, 4]
CC(C)C[C@@H]1NC(=O)[C@H](Cc2c[nH]c3ccccc23)NC(=O)[C@H](CC(=O)O)NC(=O)[C@H]2CCCN2C(=O)[C@H](CCC(=O)O)NC(=O)[C@@H](NC(=O)[C@H](Cc2ccc(O)cc2)NC(=O)COCCOCCNC(=O)CN2CCN(CC(=O)O)CCN(CC(=O)O)CCN(CC(=O)O)CC2)CSCc2cccc(c2)CSC[C@@H](C(N)=O)NC(=O)[C@H](CO)NC(=O)[C@H](Cc2c[nH]c3ccccc23)NC(=O)[C@H]([C@@H](C)O)NC1=O [3BP-3869] ({DOTA-AEEA}-YCE[dP]DWLTWSC-NH2; linker 2-11 via mXylylene) | – | C (t1/2 between 2.1 and 5.0 minutes) | 10 to 79.4 nM | < 10 nM | –
CC(C)C[C@@H]1NC(=O)C(Cc2cn(C)c3ccccc23)NC(=O)[C@H](CC(=O)O)NC(=O)[C@H]2CCCN2C(=O)[C@H](CCC(=O)O)NC(=O)[C@@H](NC(=O)[C@H](Cc2ccc(O)cc2)NC(=O)[C@@H](NC(=O)CN2CCC(NC(=O)CN3CCN(CC(=O)O)CCN(CC(=O)O)CCN(CC(=O)O)CC3)CC2)C(C)C)CSCc2cccc(c2)CSC[C@@H](C(N)=O)NC(=O)[C@H](CO)NC(=O)[C@H](Cc2c[nH]c3ccccc23)NC(=O)[C@H]([C@@H](C)O)NC1=O (stereo partly drawn) [3BP-4144] ({DOTA}-[X2]VYCE[dP]D[ξTrp(1-Me)]LTWSC-NH2; linker 4-13 via mXylylene) | < 10 nM | B (t1/2 between 5.1 and 15.0 minutes) | < 10 nM | – | –
CC(C)C[C@@H]1NC(=O)[C@H](Cc2c[nH]c3ccccc23)NC(=O)[C@H](CC(=O)O)NC(=O)[C@H]2CCCN2C(=O)[C@H](CCC(=O)O)NC(=O)[C@@H]2CSCc3cccc(c3)CSC[C@@H](C(N)=O)NC(=O)[C@H](CNC(=O)C[C@H](NC(=O)CN3CCC(NC(=O)CN4CCN(CC(=O)O)CCN(CC(=O)O)CCN(CC(=O)O)CC4)CC3)C(=O)N2)NC(=O)[C@H](Cc2c[nH]c3ccccc23)NC(=O)[C@H]([C@@H](C)O)NC1=O [3BP-4254] ({DOTA}-[X2]DCE[dP]DWLTW[Dap]C-NH2; lactam 2-11; linker 3-12 via mXylylene) | < 10 nM | C (t1/2 between 2.1 and 5.0 minutes) | < 10 nM | – | –
CC(C)C[C@@H]1NC(=O)[C@H](Cc2c[nH]c3ccccc23)NC(=O)[C@H](CC(=O)O)NC(=O)[C@H]2CCCN2C(=O)[C@H](CCC(=O)O)NC(=O)[C@@H]2CSCc3cccc(c3)CSC[C@@H](C(N)=O)NC(=O)[C@H](CNC(=O)C[C@H](NC(=O)CCCNC(=O)CN3CCN(CC(=O)O)CCN(CC(=O)O)CCN(CC(=O)O)CC3)C(=O)N2)NC(=O)[C@H](Cc2c[nH]c3ccccc23)NC(=O)[C@H]([C@@H](C)O)NC1=O [3BP-4263] ({DOTA-GABA}-DCE[dP]DWLTW[Dap]C-NH2; lactam 1-10; linker 2-11 via mXylylene) | – | C (t1/2 between 2.1 and 5.0 minutes) | < 10 nM | – | < 10 nM
CC(C)C[C@@H]1NC(=O)[C@H](Cc2c[nH]c3ccccc23)NC(=O)[C@H](CCC(=O)Nc2ccc(S(N)(=O)=O)cc2)NC(=O)[C@H]2CCCN2C(=O)[C@H](CCC(=O)O)NC(=O)[C@@H](NC(=O)[C@H](Cc2ccc(O)cc2)NC(=O)[C@@H](NC(=O)CN2CCC(NC(=O)CN3CCN(CC(=O)O)CCN(CC(=O)O)CCN(CC(=O)O)CC3)CC2)C(C)C)CSCc2cccc(c2)CSC[C@@H](C(N)=O)NC(=O)[C@H](CO)NC(=O)[C@H](Cc2c[nH]c3ccccc23)NC(=O)[C@H]([C@@H](C)O)NC1=O [3BP-4442] ({DOTA}-[X2]VYCE[dP]E(X39)WLTWSC-NH2; linker 4-13 via mXylylene) | – | A (t1/2>15.0 minutes) | < 10 nM | – | 10 to 79.4 nM
CC(C)C[C@@H]1NC(=O)[C@H](Cc2cccc(NC(=O)c3ccc(S(N)(=O)=O)s3)c2)NC(=O)[C@H](CC(=O)O)NC(=O)[C@H]2CCCN2C(=O)[C@H](CCC(=O)O)NC(=O)[C@@H](NC(=O)[C@H](Cc2ccc(O)cc2)NC(=O)[C@@H](NC(=O)CN2CCC(NC(=O)CN3CCN(CC(=O)O)CCN(CC(=O)O)CCN(CC(=O)O)CC3)CC2)C(C)C)CSCc2cccc(c2)CSC[C@@H](C(N)=O)NC(=O)[C@H](CO)NC(=O)[C@H](Cc2c[nH]c3ccccc23)NC(=O)[C@H]([C@@H](C)O)NC1=O [3BP-4413] ({DOTA}-[X2]VYCE[dP]D[X11]LTWSC-NH2; linker 4-13 via mXylylene) | – | A (t1/2>15.0 minutes) | < 10 nM | – | < 10 nM
CC(C)C[C@@H]1NC(=O)[C@H](Cc2ccc(NC(=O)CCS(N)(=O)=O)cc2)NC(=O)[C@H](CC(=O)O)NC(=O)[C@H]2CCCN2C(=O)[C@H](CCC(=O)O)NC(=O)[C@@H]2CSCc3cccc(c3)CSC[C@@H](C(N)=O)NC(=O)[C@H](CNC(=O)CC[C@H](NC(=O)CN3CCN(CC(=O)O)CCN(CC(=O)O)CCN(CC(=O)O)CC3)C(=O)N2)NC(=O)[C@H](Cc2c[nH]c3ccccc23)NC(=O)[C@H]([C@@H](C)O)NC1=O [3BP-4505] ({DOTA}-ECE[dP]D[Phe(4-NH2)](Propanoyl(3-SO2NH2))LTW[Dap]C-NH2; lactam 1-10; linker 2-11 via mXylylene) | < 10 nM | A (t1/2>15.0 minutes) | < 10 nM | – | –
CC(C)C[C@@H]1NC(=O)[C@H](Cc2cccc(NC(=O)C[C@@H]3NC(=O)CNC3=O)c2)NC(=O)[C@H](CC(=O)O)NC(=O)[C@H]2CCCN2C(=O)[C@H](CCC(=O)O)NC(=O)[C@@H](NC(=O)[C@H](Cc2ccc(O)cc2)NC(=O)[C@@H](NC(=O)CN2CCC(NC(=O)CN3CCN(CC(=O)O)CCN(CC(=O)O)CCN(CC(=O)O)CC3)CC2)C(C)C)CSCc2cccc(c2)CSC[C@@H](C(N)=O)NC(=O)[C@H](CO)NC(=O)[C@H](Cc2c[nH]c3ccccc23)NC(=O)[C@H]([C@@H](C)O)NC1=O [3BP-4288] | – | D (t1/2≤2.0 minutes) | 10 to 79.4 nM | – | 100 to 794 nM
CC(C)C[C@@H]1NC(=O)[C@H](Cc2cccc(NC(=O)CCc3nc[nH]n3)c2)NC(=O)[C@H](CC(=O)O)NC(=O)[C@H]2CCCN2C(=O)[C@H](CCC(=O)O)NC(=O)[C@@H](NC(=O)[C@H](Cc2ccc(O)cc2)NC(=O)[C@@H](NC(=O)CN2CCC(NC(=O)CN3CCN(CC(=O)O)CCN(CC(=O)O)CCN(CC(=O)O)CC3)CC2)C(C)C)CSCc2cccc(c2)CSC[C@@H](C(N)=O)NC(=O)[C@H](CO)NC(=O)[C@H](Cc2c[nH]c3ccccc23)NC(=O)[C@H]([C@@H](C)O)NC1=O [3BP-4324] ({DOTA}-[X2]VYCE[dP]D[X34]LTWSC-NH2; linker 4-13 via mXylylene) | – | A (t1/2>15.0 minutes) | < 10 nM | – | 10 to 79.4 nM

Reference: patent US20250339569A1, “CARBONIC ANHYDRASE IX LIGANDS” (priority 2021, published 2025)
